This passage reports melting point results from patent US6528543B1, “Urea derivatives” (Hoffman-La Roche Inc., priority 1999, dated 2003).

Consider `CNC(=O)NC(=O)C(CC1CCCC1)c1ccc(SC(F)(F)F)cc1` (stereo not shown) [Example 8, 1-[3-cyclopentyl-2-(4-trifluoromethylsulfanyl-phenyl)-propionyl]-3-methyl urea], for which the melting point (usually the temperature of the solid-liquid transition) fell in the range of 144 to 145 °C.

The molecule `CNC(=O)NC(=O)C(CC1CCCC1)c1ccc(S(C)(=O)=O)c(Br)c1` (stereo not shown) [Example 35, 1-[2-(3-bromo-4-methanesulfonyl-phenyl)-3-cyclopentyl-propionyl]-3-methyl-urea] showed a melting point of 259 to 260 °C. To `CNC(=O)NC(=O)C(CC1CCCC1)c1ccc(F)c(F)c1` (stereo not shown) [Example 3, 1-[3-cyclopentyl-2-(3,4-difluoro-phenyl)-propionyl]-3-methyl-urea] belongs 111 to 113 °C. For the molecule `CNC(=O)NC(=O)C(CC1CCCC1)c1ccc(S(C)(=O)=O)cc1` (stereo not shown) [Example 11, 1-[3-cyclopentyl-2-(4-methanesulfonyl-phenyl)-propionyl]-3-methyl urea], the melting point was 205 to 206 °C. To `CCCCS(=O)(=O)c1ccc(C(CC2CCCC2)C(=O)NC(=O)NC)cc1` (stereo not shown) [Example 39, 1-{2-[4-(butane-1-sulfonyl)-phenyl]-3-cyclopentyl-propionyl}-3-methyl-urea] belongs 189 to 191 °C.

The molecule `CNC(=O)NC(=O)C(CC1CCCC1)c1ccc(S(=O)(=O)C(F)(F)F)cc1` (stereo not shown) [Example 9, 1-[3-cyclopentyl-2-(4-trifluoromethanesulfonyl-phenyl)-propionyl]-3-methyl urea] had a melting point of 191 to 192 °C.

The molecule `CC(O)CNC(=O)NC(=O)C(CC1CCCC1)c1ccc(Cl)c(Cl)c1` (stereo not shown) [Example 19, 1-[3-cyclopentyl-2-(3,4-dichloro-phenyl)-propionyl]-3-(2-hydroxy-propyl)-urea] returned a melting point of 116.7 to 119.9 °C. Molecule `CC(C)C[C@@H](C(=O)NC(N)=O)c1ccc(Cl)c(Cl)c1` [Example 17, R-[2-(3,4-dichloro-phenyl)-4-methyl-pentanoyl]-urea] displayed a melting point of 138 to 140 °C. Molecule `COC(=O)CNC(=O)NC(=O)C(CC1CCCC1)c1ccc(Cl)c(Cl)c1` (stereo not shown) [Example 21, {3-[3-cyclopentyl-2-(3,4-dichloro-phenyl)-propionyl]-ureido}-acetic acid methyl ester] had a melting point of 134.5 to 136.6 °C. In turn, `CNC(=O)NC(=O)C(CC1CCCC1)c1ccccc1` (stereo not shown) [Example 6, 1-(3-cyclopentyl-2-phenyl-propionyl)-3-methyl-urea] came in with a melting point of 145 to 147 °C. To `NC(=O)NC(=O)C(CC1CCCCC1)c1ccc(Cl)c(Cl)c1` (stereo not shown) [Example 1] belongs 76 to 79 °C. `CNC(=O)NC(=O)C(CC1CCCC1)c1ccc([N+](=O)[O-])cc1` (stereo not shown) [Example 5, 1-[3-cyclopentyl-2-(4-nitro-phenyl)-propionyl]-3-methyl-urea] had a melting point of 179 to 183 °C. To `CNC(=O)NC(=O)C(CC1CCCC1)c1ccc(S(C)(=O)=O)c(C(F)(F)F)c1` (stereo not shown) [Example 40, 1-[3-cyclopentyl-2-(4-methanesulfonyl-3-trifluoromethyl-phenyl)-propionyl]-3-methyl-urea] belongs 268 to 270 °C; to `CCS(=O)(=O)c1ccc(C(CC2CCCC2)C(=O)NC(=O)NC)cc1` (stereo not shown) [Example 33, 1-[3-cyclopentyl-2-(4-ethanesulfonyl-phenyl)-propionyl]-3-methyl-urea], 200 to 201 °C; to `CNC(=O)NC(=O)C(CC1CCCC1)c1ccc(C#N)cc1` (stereo not shown) [Example 43, 1-[2-(4-cyano-phenyl)-3-cyclopentyl-propionyl]-3-methyl-urea], 61 to 65 °C. The molecule `CNC(=O)NC(=O)C(CC1CCCC1)c1ccc(S(C)(=O)=O)c(S(C)(=O)=O)c1` (stereo not shown) [Example 37, 1-[2-(3,4-bis-methanesulfonyl-phenyl)-3-cyclopentyl-propionyl]-3-methyl-urea] returned a melting point of 220 to 222 °C. To `CNC(=O)NC(=O)C(CC1CCCC1)c1cccc(S(=O)(=O)C(F)(F)F)c1` (stereo not shown) [Example 31, 1-[3-cyclopentyl-2-(3-trifluoromethanesulfonyl-phenyl)-propionyl]-3-methyl-urea] belongs 59 to 62 °C; to `CNC(=O)NC(=O)C(CC1CCCC1)c1ccc(S(C)(=O)=O)c([N+](=O)[O-])c1` (stereo not shown) [Example 14, 1-[3-cyclopentyl-2-(4-methanesulfonyl-3-nitrophenyl)-propionyl]-3-methyl-urea], 241 to 242 °C.

Molecule `CNC(=O)NC(=O)C(CC1CCCC1)c1ccc(S(C)(=O)=O)c(F)c1` (stereo not shown) [Example 42, 1-[3-cyclopentyl-2-(3-fluoro4-methanesulfonyl-phenyl)-propionyl]-3-methyl-urea] showed a melting point of 199 to 200 °C. Next, `CNC(=O)NC(=O)C(CC1CCCC1)c1ccc(Cl)cc1` (stereo not shown) [Example 4, 1-[2-(4-chloro-phenyl)-3-cyclopentyl-propionyl]-3-methyl-urea]: 145 to 147 °C; `CNC(=O)NC(=O)C(CC1CCCC1)c1ccc(Cl)c([N+](=O)[O-])c1` (stereo not shown) [Example 34, 1-[2-(4-chloro-3-nitro-phenyl)-3-cyclopentyl-propionyl]-3-methyl-urea]: 61 to 64 °C; `CNC(=O)NC(=O)[C@H](CC1CCCC1)c1ccc(Cl)c(Cl)c1` [Example 13, 1-[3-cyclopentyl-2(R)-(3,4-dichloro-phenyl)-propionyl]-3-methyl-urea]: 124.8 to 127.5 °C. To `CNC(=O)NC(=O)C(CC1CCCC1)c1cccc(Cl)c1` (stereo not shown) [Example 2, 1-[2-(3-chloro-phenyl)-3-cyclopentyl-propionyl]-3-methyl-urea] belongs 52 to 55 °C. Regarding `CNC(=O)NC(=O)C(CC1CCCC1)c1ccc(C(F)(F)F)c(F)c1` (stereo not shown) [Example 32, 1-[3-cyclopentyl-2-(3-fluoro-4-trifluoromethyl-phenyl)-propionyl]-3-methyl-urea], the melting point lay in the range of 187 to 189 °C. Regarding `CNC(=O)NC(=O)C(CC1CCCC1)c1ccc(Br)cc1` (stereo not shown) [Example 7, 1-[2-(4-bromo-phenyl)-3-cyclopentyl-propionyl]-3-methyl urea], the melting point fell in the range of 184 to 186 °C. In the case of `CC(C)CC(C(=O)NC(N)=O)c1ccc(Cl)cc1` (stereo not shown) [Example 16, [2-(4-chloro-phenyl)-4-methyl-pentanoyl]-urea], the melting point lay in the range of 164 to 165 °C. To `CNC(=O)NC(=O)C(CC1CCCC1)c1ccc(S(C)(=O)=O)c(C#N)c1` (stereo not shown) [Example 36, 1-[2-(3-cyano-4-methanesulfonyl-phenyl)-3-cyclopentyl-propionyl]-3-methyl-urea] belongs 237 to 239 °C. To `CNC(=O)NC(=O)C(CC1CCCC1)c1ccc(SC)cc1` (stereo not shown) [Example 10, 1-[3-cyclopentyl-2-(4-methylsulfanyl-phenyl)-propionyl]-3-methyl urea] belongs 185 to 186 °C.
